In the supplement of paper PMC10307832:

Legend:
Experiment in all cases: relative viability (nuclei count vs DMSO), 5 days (fraction); higher = more cells survive
[1] = compound: C1CCC(CC1)N(CCNCCC2=C3C(=C(C=C2)O)NC(=O)CO3)C(=O)CCNCCC4=CC(=C(C=C4)Cl)Cl [AZ505] + O=C(c1cc(Cc2n[nH]c(=O)c3ccccc23)ccc1F)N1CCN(C(=O)C2CC2)CC1 [Olaparib] (partner 8 µM)
Summary of the method: (§1)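 For relative viability, nuclei counts in treated wells were divided by those in vehicle wells. Lung cancer cell lines had been pin-tool dosed in 1536-well plates the day after seeding and cultured for 5 days, then fixed and stained in one step (final 0.05% Triton X-100, 1% formaldehyde, 1 ug/ml Hoechst) and imaged at 4×. Doses were one drug alone or a fixed anchor-drug dose plus five library-drug doses (not always all listed) in √10 steps, and values are duplicate-plate medians.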

[2] = compound: Cn1c(=O)n(-c2ccc(C(C)(C)C#N)cc2)c2c3cc(-c4cnc5ccccc5c4)ccc3ncc21 [Dactolisib] + Cc1nc(Nc2ncc(C(=O)Nc3c(C)cccc3Cl)s2)cc(N2CCN(CCO)CC2)n1 [Dasatinib] (partner 0.075 µM)
Summary of the method: as §1

[3] = compound: C1CCC(CC1)N(CCNCCC2=C3C(=C(C=C2)O)NC(=O)CO3)C(=O)CCNCCC4=CC(=C(C=C4)Cl)Cl [AZ505] + CS(=O)(=O)N1CCN(Cc2cc3nc(-c4cccc5[nH]ncc45)nc(N4CCOCC4)c3s2)CC1 [Pictilisib] (partner 1 µM)
Summary of the method: as §1

[4] = compound: C1CCC(CC1)N(CCNCCC2=C3C(=C(C=C2)O)NC(=O)CO3)C(=O)CCNCCC4=CC(=C(C=C4)Cl)Cl [AZ505] + CC(C)C[C@H](NC(=O)[C@H](Cc1ccccc1)NC(=O)c1cnccn1)B(O)O [Bortezomib] (partner 0.002 µM)
Summary of the method: as §1

Cell Line | relative viability ([1]; first compound 0.08 µM) | relative viability ([1]; first compound 0.253 µM) | relative viability ([1]; first compound 0.8 µM) | relative viability ([1]; first compound 2.53 µM) | relative viability ([1]; first compound 8 µM) | relative viability ([2]; first compound 0.002 µM) | relative viability ([2]; first compound 0.006325 µM) | relative viability ([2]; first compound 0.02 µM) | relative viability ([2]; first compound 0.06325 µM) | relative viability ([2]; first compound 0.2 µM) | relative viability ([3]; first compound 0.08 µM) | relative viability ([3]; first compound 0.253 µM) | relative viability ([3]; first compound 0.8 µM) | relative viability ([3]; first compound 2.53 µM) | relative viability ([3]; first compound 8 µM) | relative viability ([4]; first compound 0.08 µM) | relative viability ([4]; first compound 0.253 µM) | relative viability ([4]; first compound 0.8 µM) | relative viability ([4]; first compound 2.53 µM) | relative viability ([4]; first compound 8 µM)
SW 1573 | 0.391 | 0.493 | 0.425 | 0.468 | 0.467 | 0.627 | 0.493 | 0.306 | 0.146 | 0.119 | 0.456 | 0.514 | 0.422 | 0.467 | 0.571 | 0.907 | 1.08 | 0.939 | 1.12 | 1.08
H3255 | 0.55 | 0.564 | 0.569 | 0.601 | 0.597 | 0.489 | 0.387 | 0.357 | 0.397 | 0.28 | 0.395 | 0.39 | 0.48 | 0.424 | 0.598 | 0.558 | 0.812 | 0.817 | 0.804 | 0.758
NCI-H1792 | 0.432 | 0.447 | 0.404 | 0.517 | 0.321 | 0.752 | 0.724 | 0.724 | 0.338 | 0.206 | 0.301 | 0.262 | 0.288 | 0.25 | 0.323 | 0.785 | 1.07 | 0.927 | 0.94 | 1
NCI-H1650 | 0.723 | 0.803 | 0.735 | 0.727 | 0.853 | 0.306 | 0.3 | 0.296 | 0.245 | 0.205 | 0.488 | 0.594 | 0.586 | 0.492 | 0.502 | 0.234 | 0.189 | 0.205 | 0.248 | 0.188
NCI-H2087 | 0.515 | 0.536 | 0.552 | 0.629 | 0.611 | 0.782 | 0.771 | 0.86 | 0.359 | 0.272 | 0.679 | 0.703 | 0.797 | 0.738 | 0.828 | 0.686 | 0.845 | 0.732 | 0.849 | 0.91
HCC-366 | 0.277 | 0.439 | 0.315 | 0.412 | 0.406 | 0.598 | 0.565 | 0.597 | 0.341 | 0.136 | 0.136 | 0.186 | 0.123 | 0.128 | 0.18 | 0.933 | 1.01 | 1.02 | 0.952 | 1.11
NCI-H727 | 0.653 | 0.675 | 0.667 | 0.724 | 0.662 | 0.384 | 0.445 | 0.461 | 0.3 | 0.257 | 0.327 | 0.313 | 0.468 | 0.274 | 0.47 | 0.728 | 0.708 | 0.767 | 0.747 | 0.934
LU99A | 0.279 | 0.298 | 0.289 |  | 0.265 | 0.621 | 0.449 | 0.403 | 0.225 | 0.205 | 0.318 | 0.327 | 0.302 | 0.354 | 0.315 | 1.02 | 1.08 | 1.05 | 1.18 | 1.18
NCI-H647 | 0.521 | 0.739 | 0.547 | 0.533 | 0.706 | 0.164 | 0.191 | 0.143 | 0.0579 | 0.068 | 0.448 |  | 0.359 | 0.422 | 0.485 | 1.07 | 1.13 | 1 | 1.19 | 1.01
HCC-78 |  |  | 0.878 | 0.829 | 1.03 | 0.427 | 0.409 | 0.336 | 0.399 | 0.224 |  | 0.219 | 0.179 | 0.264 | 0.289 | 0.619 | 0.72 | 0.557 | 0.546 | 0.587
NCI-H1755 | 0.82 | 0.849 | 0.92 | 0.885 | 0.868 | 0.392 | 0.401 | 0.379 | 0.412 | 0.278 | 0.347 | 0.331 | 0.333 | 0.42 | 0.431 | 0.952 | 0.988 | 0.949 | 0.961 | 0.93
NCI-H3122 | 0.617 | 0.689 | 0.618 | 0.629 | 0.622 | 0.702 | 0.818 | 0.752 | 0.675 | 0.225 | 0.561 | 0.573 | 0.665 | 0.409 | 0.643 | 1.01 | 1.02 | 1.07 | 1.04 | 1.03
PC-14 | 0.302 | 0.255 | 0.248 | 0.324 | 0.241 | 0.312 | 0.285 | 0.264 | 0.0655 | 0.0441 | 0.449 | 0.754 | 0.658 | 0.643 | 0.703 | 0.776 | 0.877 | 0.882 | 0.768 | 0.841
